{
  "source": "paper PMC8757452",
  "about": "(ACS Omega, 2021)",
  "key": {"T. cruzi epimastigotes [1]": {"test_system": "T. cruzi epimastigotes", "settings": "ref [14], cited from earlier work"}, "T. cruzi epimastigotes [2]": {"test_system": "T. cruzi epimastigotes", "assay": "T. cruzi epimastigotes growth inhibition, [3H] thymidine uptake assay", "type": "cell-based, Trypanosoma cruzi", "settings": "for IC50: 72 h, read-out: IC50 (μg/mL) ± SD on T. cruzi epimastigotes; for SI (selectivity index, relation between CC50 and IC50): CC50 splenocytes / IC50 epimastigotes"}, "T. cruzi (K-98 clone)": {"test_system": "T. cruzi (K-98 clone)", "assay": "In vivo trypanocidal activity, murine model of Chagas disease", "parameters": "species or system BALB/c mice", "settings": "1 mg/kg/day i.p."}, "HeLa cells": {"test_system": "HeLa cells", "settings": "read-out: IC50, cytotoxicity on HeLa cells, ref [28]; cited from earlier work"}},
  "data": [
    {"smiles": "COC1=C(C(C)C)C(=O)C2=C(C[C@@]34CCCC(C)(C)[C@@H]3C[C@]2(O)O4)C1=O", "note": "[K, Komaroviquinone]", "values": [
      {"measurement": "IC50 of komaroviquinone", "setting": "T. cruzi epimastigotes [1]; T. cruzi epimastigotes", "value": "a Komaroviquinone IC50 = 1.00 μg/mL ref ([14])."},
      {"measurement": "log (1/IC50) of komaroviquinone", "setting": "T. cruzi epimastigotes [1]; from IC50 = 1.00 μg/mL, IC50 in molar", "value": 5.43}
    ]},
    {"smiles": "O=C(Cn1ccnc1[N+](=O)[O-])NCc1ccccc1", "note": "[benznidazole]", "values": [
      {"measurement": "IC50", "setting": "T. cruzi epimastigotes [2]; Trypanosoma cruzi", "value": "1 ± 0.62", "unit": "µg/mL"},
      {"measurement": "area under the parasitemia curve (AUC)", "setting": "T. cruzi (K-98 clone); days 11-15 post-infection", "value": 4},
      {"measurement": "sterile cure", "setting": "T. cruzi (K-98 clone); five days", "value": "neither Bz was able to cure"}
    ]},
    {"smiles": "C=C1C(=O)O[C@@H]2C[C@@H](C)[C@@H]3C=CC(=O)[C@@]3(C)[C@@H](O)[C@H]12", "note": "[compound 10, helenalin]", "values": [
      {"measurement": "SI (selectivity index, relation between CC50 and IC50)", "setting": "T. cruzi epimastigotes [2]", "value": 1.1},
      {"measurement": "IC50", "setting": "T. cruzi epimastigotes [2]; Trypanosoma cruzi", "value": "0.29 ± 0.05", "unit": "µg/mL"},
      {"measurement": "inhibition at 1.5 µg/mL", "setting": "T. cruzi epimastigotes [2]; Trypanosoma cruzi, read-out: inhibition of parasite replication", "value": 66, "unit": "%"}
    ]},
    {"smiles": "C=C1C(=O)O[C@@H]2[C@H]1CC[C@H](C)[C@@]1(O)C=CC(=O)[C@@]21C", "note": "[compound 14, hymenin]", "values": [
      {"measurement": "SI (selectivity index, relation between CC50 and IC50)", "setting": "T. cruzi epimastigotes [2]", "value": 0.8},
      {"measurement": "IC50", "setting": "T. cruzi epimastigotes [2]; Trypanosoma cruzi", "value": "1.5 ± 0.09", "unit": "µg/mL"}
    ]},
    {"smiles": "C=C1C[C@H](O)[C@H](Br)C(C)(C)[C@@]12CCC(C)=C(Cl)C2", "note": "[elatol]", "values": [
      {"measurement": "IC50", "setting": "HeLa cells", "value": 1300, "unit": "nM"}
    ]}
  ]
}
